# Data taken from the NIST ThermoML archive (doi:10.1016/j.fluid.2007.07.063).
# ± gives the expanded uncertainty stated by the source.
# What was measured:
# [1] = 298.15 K; 101.33 kPa; Liquid; Pycnometric method
# [2] = excess molar enthalpy (molar enthalpy of mixing); xn = mol fraction of the nth substance listed; details: 298.15 K, 101 kPa, Liquid, Flow calorimetry
smiles,measurement,setting,value
CCCCO [butan-1-ol],mass density,[1],805.71 ± 0.73 kg/m3
CCCCCCCCCCO [decan-1-ol],mass density,[1],826.31 ± 0.74 kg/m3
CCCCCCO [hexan-1-ol],mass density,[1],815.4 ± 0.78 kg/m3
C=CCCCCCC [oct-1-ene],mass density,[1],710.88 ± 0.64 kg/m3
C=CCCCCCC [oct-1-ene] + CCCCCCCCCCO,excess molar enthalpy,[2]; x2 = 0.097,0.0643 ± 0.00335 kcal/mol
same,excess molar enthalpy,[2]; x2 = 0.195,0.0875 ± 0.00454 kcal/mol
same,excess molar enthalpy,[2]; x2 = 0.293,0.0956 ± 0.00478 kcal/mol
same,excess molar enthalpy,[2]; x2 = 0.406,0.0924 ± 0.00478 kcal/mol
same,excess molar enthalpy,[2]; x2 = 0.504,0.0834 ± 0.0043 kcal/mol
same,excess molar enthalpy,[2]; x2 = 0.602,0.072 ± 0.00359 kcal/mol
same,excess molar enthalpy,[2]; x2 = 0.7,0.0578 ± 0.00287 kcal/mol
same,excess molar enthalpy,[2]; x2 = 0.8,0.0397 ± 0.00203 kcal/mol
same,excess molar enthalpy,[2]; x2 = 0.902,0.0182 ± 0.000956 kcal/mol
C=CCCCCCC [oct-1-ene] + CCCCCCCCO,excess molar enthalpy,[2]; x2 = 0.097,0.0699 ± 0.00359 kcal/mol
same,excess molar enthalpy,[2]; x2 = 0.194,0.0935 ± 0.00478 kcal/mol
same,excess molar enthalpy,[2]; x2 = 0.292,0.104 ± 0.00526 kcal/mol
same,excess molar enthalpy,[2]; x2 = 0.391,0.103 ± 0.00526 kcal/mol
same,excess molar enthalpy,[2]; x2 = 0.49,0.0942 ± 0.00478 kcal/mol
same,excess molar enthalpy,[2]; x2 = 0.6,0.0814 ± 0.00406 kcal/mol
same,excess molar enthalpy,[2]; x2 = 0.699,0.0631 ± 0.00311 kcal/mol
same,excess molar enthalpy,[2]; x2 = 0.799,0.0429 ± 0.0022 kcal/mol
same,excess molar enthalpy,[2]; x2 = 0.899,0.0188 ± 0.00098 kcal/mol
C=CCCCCCC [oct-1-ene] + CCCCCCO,excess molar enthalpy,[2]; x2 = 0.096,0.0801 ± 0.00406 kcal/mol
same,excess molar enthalpy,[2]; x2 = 0.192,0.105 ± 0.00526 kcal/mol
same,excess molar enthalpy,[2]; x2 = 0.307,0.12 ± 0.00598 kcal/mol
same,excess molar enthalpy,[2]; x2 = 0.403,0.118 ± 0.00598 kcal/mol
same,excess molar enthalpy,[2]; x2 = 0.5,0.106 ± 0.00526 kcal/mol
same,excess molar enthalpy,[2]; x2 = 0.598,0.0912 ± 0.00454 kcal/mol
same,excess molar enthalpy,[2]; x2 = 0.697,0.0724 ± 0.00359 kcal/mol
same,excess molar enthalpy,[2]; x2 = 0.802,0.0491 ± 0.00263 kcal/mol
same,excess molar enthalpy,[2]; x2 = 0.9,0.0233 ± 0.00122 kcal/mol
C=CCCCCCC [oct-1-ene] + CCCCO,excess molar enthalpy,[2]; x2 = 0.095,0.0949 ± 0.00478 kcal/mol
same,excess molar enthalpy,[2]; x2 = 0.209,0.14 ± 0.00717 kcal/mol
same,excess molar enthalpy,[2]; x2 = 0.304,0.154 ± 0.00789 kcal/mol
same,excess molar enthalpy,[2]; x2 = 0.4,0.149 ± 0.00765 kcal/mol
same,excess molar enthalpy,[2]; x2 = 0.497,0.132 ± 0.00669 kcal/mol
same,excess molar enthalpy,[2]; x2 = 0.595,0.109 ± 0.0055 kcal/mol
same,excess molar enthalpy,[2]; x2 = 0.702,0.0832 ± 0.0043 kcal/mol
same,excess molar enthalpy,[2]; x2 = 0.8,0.0565 ± 0.00287 kcal/mol
same,excess molar enthalpy,[2]; x2 = 0.899,0.0286 ± 0.00148 kcal/mol
C=CCCCCCC [oct-1-ene] + CCCO,excess molar enthalpy,[2]; x2 = 0.094,0.104 ± 0.00526 kcal/mol
same,excess molar enthalpy,[2]; x2 = 0.189,0.154 ± 0.00789 kcal/mol
same,excess molar enthalpy,[2]; x2 = 0.302,0.183 ± 0.00932 kcal/mol
same,excess molar enthalpy,[2]; x2 = 0.398,0.179 ± 0.00908 kcal/mol
same,excess molar enthalpy,[2]; x2 = 0.495,0.163 ± 0.00837 kcal/mol
same,excess molar enthalpy,[2]; x2 = 0.593,0.143 ± 0.00717 kcal/mol
same,excess molar enthalpy,[2]; x2 = 0.693,0.117 ± 0.00598 kcal/mol
same,excess molar enthalpy,[2]; x2 = 0.799,0.0814 ± 0.00406 kcal/mol
same,excess molar enthalpy,[2]; x2 = 0.899,0.0435 ± 0.00222 kcal/mol
CCCCCCCCO [octan-1-ol],mass density,[1],822.47 ± 0.83 kg/m3
CCCO [propan-1-ol],mass density,[1],799.65 ± 0.72 kg/m3
